Assay results reported in patent publication US9220705B2, “Method of treating colorectal cancer” (priority 2013, dated 2015).
“Also recorded” adds a separate entry of the source. Read-outs that look alike come from different tables or passages of the source.

Key:
[1] = system: panel of human tumor cell lines (A431, MCF-7, A375, HCT-15, SW480, CaCo-2, DLD-1); assay: MTT cytotoxicity, comparison over the Table 1 panel; assay type: cell-based; details: average over seven cell lines of Table 1
Procedure: (§1) After 24 h, the medium was removed and replaced with a fresh one containing the compound to be studied, at the appropriate concentration, dissolved in 0.9% sodium chloride solution just before use. Triplicate cultures were established for each treatment. After 72 h, each well was treated with […] of a 5 mg mL^−1 MTT saline solution and, after 5 h of incubation, 100 μL of a sodium dodecylsulfate (SDS) solution in 0.01 M HCl were added. After an overnight incubation, the inhibition of cell growth induced by the tested complexes was determined by measuring the absorbance of each well at 570 nm using a BioRad 680 microplate reader. Mean absorbance for each drug dose was expressed as percentage of the control and plotted vs. drug concentration. Dose-response curves were fitted and IC50 values were calculated with four parameter logistic model (4PL).
The cytotoxicity was evaluated by means of the MTT test for 72 h treatment with increasing concentrations of the tested compounds.

[2] = assay type: physicochemical
Description: Lipophilicity is usually expressed in terms of n-octanol/water partition coefficient, log Po/w, and correlates with cellular uptake by passive diffusion (Liu, X., et al., Pharm. Res. 2011, 28, 962-977).
Since RP-HPLC retention is due to partitioning between mobile (polar) and stationary (apolar) phases, there is a good correlation between capacity factor k′ (k′=(tR−t0)/t0, where t0 is the retention time for an unretained compound and tR is the retention time of the analyte) and partition coefficient (log Po/w=a+b log k′). Thus the HPLC procedure represents a good alternative to the time- and material-consuming shake-flask method. […] This implies that there are specific import (CTR1, OCT, etc.) or export (ATP7B) mechanisms which operate selectively on the different types of complexes.

[3] = system: Lewis lung carcinoma (LLC); assay: In vivo anticancer activity toward Lewis lung carcinoma; design: species or system C57BL mice; details: LLC-bearing mice
Procedure: All studies involving animal testing were carried out in accordance with the ethical guidelines for animal research adopted by the University of Padua, acknowledging the Italian regulation and the European Directive 86/609/EEC as to animal welfare and protection and the related codes of practice. The mice were purchased from Charles River, Italy, and housed in steel cages under controlled environmental conditions (constant temperature, humidity, and 12 h dark/light cycle) and alimented with commercial standard feed and tap water ad libitum. Animals were observed daily, and body weight and food intake recorded. The Lewis lung carcinoma (LLC) cell line was purchased from ECACC, UK. The LLC cell line was maintained in D-MEM (Euroclone) supplemented with 10% heat-inactivated FBS (Euroclone), 10 mM L-glutamine, 100 U mL^−1 penicillin, and 100 μg mL^−1 streptomycin in a 5% CO2 air incubator at 37° C.
The Lewis lung carcinoma (LLC) was implanted i.m. as a 2×10^6 cell inoculum into the right hind leg of 8-week old male and female C57BL mice (24±3 g body weight). […] At day 15, animals were sacrificed, the legs were amputated at the proximal end of the femur, and the inhibition of tumor growth was determined according to the difference in weight of the tumor-bearing leg and the healthy leg of the animals expressed as % referred to the control animals. Body weight was measured every two days and was taken as a parameter for systemic toxicity.
All the values are the means±S.D. of not less than three measurements. Multiple comparisons were made by Tukey-Kramer test (**p<0.01; *p or °p<0.05).
The in vivo antitumor activity of compound 1 was evaluated in a model of solid tumor, the syngeneic murine Lewis lung carcinoma (LLC). […] For the assessment of the adverse side effects, changes in body weights of tumor-bearing mice were monitored daily (FIG. 3).

[4] = system: LoVo colorectal adenocarcinoma xenografts; assay: In vivo anticancer activity, oxaliplatin-sensitive colorectal xenograft; design: species or system BALB/c nu/nu mice; details: LoVo xenograft mice, day 14 to day 30; FIG. 5 panel A
Procedure: (§2) LoVo and LoVo-OXP tumor xenografts were established in 6-week-old BALB/c nu/nu mice by injecting 1×10^7 tumor cells subcutaneously (100 μL in serum free medium) on the left dorsal flank. After 24 h from tumor implantation, mice were randomly divided into five groups (6 animals per group, 8 controls). Chemotherapy was delayed until the tumor became palpable (day 14). From day 14, 1 was dosed daily at 3 mg/kg ip whereas OXP was dosed daily at 2 mg/kg ip. Measurements of body weights and tumor volumes were recorded every 2 days until the experimental endpoint. The long axis (L) and the short axis (S) were measured with caliper, and the tumor volume (V) was calculated using the following equation: V=S×S×L/2. At day 30, animals were sacrificed, and the inhibition of tumor growth was determined by comparing the volume of the control group and the treatment group expressed as % referred to the control animals.
(§3) All the values are the means±S.D. of not less than three measurements. Multiple comparisons were made by Tukey-Kramer test (**p<0.01; *p<0.05).

[5] = system: LoVo-OXP colorectal adenocarcinoma xenografts; assay: In vivo anticancer activity, oxaliplatin-resistant colorectal xenograft; design: species or system BALB/c nu/nu mice; details: LoVo-OXP xenograft mice, day 14 to day 30; FIG. 5 panel B
Procedure: as §2, §3

Aqueous solubility = assay type: physicochemical; details: compared to compound 2
[6] = system: 2008/C13*, LoVo/LoVo-OXP, LoVo MDR; assay: MTT cytotoxicity, comparison over the Table 2 cell lines; assay type: cell-based, human; details: 2008 ovarian and LoVo colon sensitive cells
Procedure: as §1
A LoVo cell line retaining a multidrug resistance phenotype was also considered (LoVo MDR). Cross-resistance profiles were evaluated by means of the resistance factor (RF), which is defined as the ratio between the IC50 value for the resistant cells and that arising from the sensitive cells (Table 2).

[7] = system: human ovarian A2780 cancer cell line; details: Kasparkova 2010; cited from earlier work
LoVo-OXP cells = assay: Cellular platinum uptake by GF-AAS; assay type: cell-based, human; details: LoVo-OXP resistant cells, 5 μM, 6, 24, 48 h, FIG. 2 panel B, compared with LoVo
Procedure: LoVo and LoVo-OXP cells (2×10^6) were seeded in 75 cm^2 flasks in growth medium (20 ml). After 24 h, the medium was replaced and the cells incubated for different times (6, 24 or 48 h) in the presence of the tested complexes. Cell monolayers were washed twice with cold PBS and harvested. Samples were subjected to three freezing/thawing cycles at −80° C., and then vigorously vortexed. Aliquots were removed for the determination of protein content by the BioRad protein assay (BioRad). The samples were treated with 1 mL of highly pure nitric acid (Pt: ≦0.01 μg×kg^−1, TraceSELECT® Ultra, Sigma Chemical Co.) and transferred into a microwave teflon vessel. Subsequently, samples were submitted to a standard procedure using a speed wave MWS-3 Berghof instrument (Eningen, Germany). After cooling, each mineralized sample was analyzed for platinum by using a Varian AA Duo graphite furnace atomic absorption spectrometer (Varian, Palo Alto, Calif.; USA) at the wavelength of […]. The calibration curve was obtained using known concentrations of standard solutions purchased from Sigma Chemical Co.
It is well-known that cellular uptake is an important factor influencing drug efficacy. […] The intracellular platinum was quantified by means of GF-AAS analysis and the results, expressed as μg metal mg^−1 of cellular proteins, are summarized in FIG. 2.

[8] = literature values; cited from earlier work

Row | Compound | average cytotoxic activity compared with reference drugs [1] | log Po/w [2] | body weight loss compared with cisplatin ([3]; 1.5 mg kg^−1 each, FIG. 3) | tolerability compared with cisplatin ([3]; daily i.p.) | adverse side effects (body weight loss) compared with cisplatin ([3]; compound 1 at 3 mg kg^−1, FIG. 3) | body weight loss [4] | body weight loss [5] | aqueous solubility (Aqueous solubility) | cytotoxic activity towards sensitive lines compared with reference drugs [6] | cytotoxicity, fold greater than cisplatin [7] | intracellular platinum accumulation (LoVo-OXP cells) | log Po/w [8]
1 | [Cl][Pt]1([Cl])[NH]C2CCC(CC2)[NH]1 [Compound 1, [SP-4-2-(cis)]-dichloro(1,4-cyclohexanediamine-N,N′)platinum] | slightly more effective than oxaliplatin | −1.57±0.10 | about half that caused by cisplatin | better tolerated than cisplatin | smaller adverse side effects than cisplatin | roughly equivalent to that obtained by using the parent drug oxaliplatin | roughly equivalent to that obtained by using the parent drug oxaliplatin | enhanced aqueous solubility compared to compound 2 | as good as oxaliplatin and better than cisplatin | 3.4-5.4 | – | –
2 | [Cl][Pt]1([Cl])[NH][C@@H]2CCCC[C@H]2[NH]1 [Compound 2, [SP-4-2]-dichloro[(1R,2R)-1,2-cyclohexanediamine-N^1,N^2]platinum] | – | – | – | – | – | – | – | – | – | – | remarkably decreased; also recorded: decreases remarkably | −1.40
